Reference: patent publication US20210024542A1 (Torcept Therapeutics, Inc., priority 2018, published 2021)

Columns and labels:
Hs 729 = assay: OncoPanel cell proliferation assay, Hs 729; assay type: cell-based, human; settings: Hs 729, scale 0-10
Description: (§1) Cells were grown in RPMI 1640, 10% FBS, 2 mM L-alanyl-L-glutamine, 1 mM Na pyruvate, or a special medium. Cells were seeded into 384-well plates and incubated in a humidified atmosphere of 5% CO2 at 37° C. Compounds were added the day following cell seeding. At the same time, a time zero untreated cell plate was generated. After a 3-day incubation period, cells were fixed and stained to allow fluorescence imaging of nuclei. Compounds (1 mM stock solutions) were serially diluted in half-log steps from the highest test concentration ([…]), and assayed over 10 concentrations with a maximum assay concentration of 0.1% DMSO. Automated fluorescence microscopy was carried out using a Molecular Devices ImageXpress Micro XL high-content imager, and images were collected with a 4× objective. 16-bit TIFF images were acquired and analyzed with MetaXpress 5.1.0.41 software.
(§2) Cell proliferation was measured by the fluorescence intensity of an incorporated nuclear dye. The output is referred to as the relative cell count, where the measured nuclear intensity is transformed to percent of control (POC) using the following formula: […]
(§3) Cellular response parameters were calculated using nonlinear regression to a sigmoidal single-site dose response model:
(§4) Where y is a response measured at concentration x, A and B are the lower and upper limits of the response, C is the concentration at the response midpoint (EC50), and D is the Hill Slope (Ref. 1).
(§5) EC50 is the test compound concentration at the curve inflection point or half the effective response (parameter C of the fitted curve solution). GI50 is the concentration needed to reduce the observed growth by half (midway between the curve maximum and the time zero value). “Cell Count Activity Area” is an estimate of the integrated area above the curve (Barretina, et al. The Cancer Cell Line Encyclopedia enables predictive modelling of anticancer drug sensitivity. Nature 483: 603-607). […] In rare instances, values <0 or >10 may be observed. […] Curve-fitting, calculations, and report generation was performed using a custom data reduction engine and MathIQ based software (AIM).

786-O = assay: OncoPanel cell proliferation assay, 786-O; assay type: cell-based, human; settings: 786-O, scale 0-10
Description: as §1, §2, §3, §4, §5

Hs 852.T = assay: OncoPanel cell proliferation assay, Hs 852.T; assay type: cell-based, human; settings: scale 0-10
Description: as §1, §2, §3, §4, §5

A431 = assay: OncoPanel cell proliferation assay, A431; assay type: cell-based, human; settings: A431, scale 0-10
Description: as §1, §2, §3, §4, §5

CRO-AP2 = assay: OncoPanel cell proliferation assay, CRO-AP2; assay type: cell-based, human; settings: CRO-AP2, scale 0-10
Description: as §1, §2, §3, §4, §5

CML-T1 = assay: OncoPanel cell proliferation assay, CML-T1; assay type: cell-based, human; settings: CML-T1, scale 0-10
Description: as §1, §2, §3, §4, §5

SK-MEL-28 = assay: OncoPanel cell proliferation assay, SK-MEL-28; assay type: cell-based, human; settings: SK-MEL-28, scale 0-10
Description: as §1, §2, §3, §4, §5

ST486 = assay: OncoPanel cell proliferation assay, ST486; assay type: cell-based, human; settings: ST486, scale 0-10
Description: as §1, §2, §3, §4, §5

T24 = assay: OncoPanel cell proliferation assay, T24; assay type: cell-based, human; settings: T24, scale 0-10
Description: as §1, §2, §3, §4, §5

TF-1 = assay: OncoPanel cell proliferation assay, TF-1; assay type: cell-based, human; settings: TF-1, scale 0-10
Description: as §1, §2, §3, §4, §5

RKOE6 = assay: OncoPanel cell proliferation assay, RKOE6; settings: RKOE6, scale 0-10
Description: (§6) Cells were seeded into 384-well plates and incubated in a humidified atmosphere of 5% CO2 at 37° C. Compounds were added the day following cell seeding. At the same time, a time zero untreated cell plate was generated. After a 3-day incubation period, cells were fixed and stained to allow fluorescence imaging of nuclei. Compounds (1 mM stock solutions) were serially diluted in half-log steps from the highest test concentration (1 micromol), and assayed over 10 concentrations with a maximum assay concentration of 0.1% DMSO. Automated fluorescence microscopy was carried out using a Molecular Devices ImageXpress Micro XL high-content imager, and images were collected with a 4× objective. 16-bit TIFF images were acquired and analyzed with MetaXpress 5.1.0.41 software.
(§7) GI50 is the concentration needed to reduce the observed growth by half (midway between the curve maximum and the time zero value). […] In rare instances, values <0 or >10 may be observed. […] Curve-fitting, calculations, and report generation was performed using a custom data reduction engine and MathIQ based software (AIM).

CAMA-1 = assay: OncoPanel cell proliferation assay, CAMA-1
Description: as §6, §7

OVCAR3 = assay: OncoPanel cell proliferation assay, OVCAR3; settings: OVCAR3, scale 0-10
Description: as §6, §7

SK-UT-1 = assay: OncoPanel cell proliferation assay, SK-UT-1; settings: SK-UT-1, scale 0-10
Description: as §6, §7

`CN[C@@H]1C[C@H]2O[C@@](C)([C@@H]1OC)n1c3ccccc3c3c4c(c5c6ccccc6n2c5c31)C(=O)NC4` [Staurosporine, reference compound] was tested, and the “Cell Count Activity Area” value (Hs 729) was 4.06, the “Cell Count Activity Area” value (786-O) was 4.87 and the “Cell Count Activity Area” value (Hs 852.T) was 3.16. The “Cell Count Activity Area” value (A431) was 5.64, the “Cell Count Activity Area” value (CRO-AP2) was 3.99 and the “Cell Count Activity Area” value (CML-T1) was 4.13. For the same compound, the “Cell Count Activity Area” value (SK-MEL-28) was 2.81, the “Cell Count Activity Area” value (ST486) was 4.89 and the “Cell Count Activity Area” value (T24) was 5.96. For the same compound, the “Cell Count Activity Area” value (TF-1) was 3.31, the “Cell Count Activity Area” value (RKOE6) was 3.96 and the “Cell Count Activity Area” value (CAMA-1; CAMA-1, scale 0-10) was 2.99. The GI50 (CAMA-1; Homo sapiens, CAMA-1, 72 h, read-out: Cell Count GI50) was 12 nM, the IC50 (CAMA-1; Homo sapiens, CAMA-1, 72 h, read-out: Cell Count IC50) was 99 nM and the “Cell Count Activity Area” value (OVCAR3) was 3.41. The “Cell Count Activity Area” value (SK-UT-1) was 3.46.
